According to US10053447B2, “Fluorescent compounds” (Pierce Biotechnology, Inc, priority 2010, dated 2018):

Legend:
[1] = Spectral properties of the dyes compared with commercially available dyes; type: physicochemical; details: reactive ester form of the dye
IMR90 cells = assay: Direct fluorescence labeling of cell surface proteins; type: cell-based, human; details: 6 μm, 3 μm, 1.5 μm, and 0.75 μm as printed; 30 min
Description: The inventive compounds and commercial dyes were evaluated in direct fluorescence labeling of cell surface proteins using the following protocol. DyLight 549-NHS, 550 Compound 1-NHS, and Whole Cell Stain Orange (Thermo Fisher Scientific) were reconstituted in DMF and diluted to 6 μM in Dulbecco's PBS (DPBS). A total of four 1:1 serial dilutions of the dyes were prepared in DPBS. Frozen IMR90 cells (human lung embryonic fibroblast) on a plate were thawed for 1 h at 37° C. The cell plates were washed two times with DPBS and incubated with dye dilutions for 30 min at room temperature protected from light. The cell plates were then washed three times with DPBS. The cell plates were incubated with 100 μl/well of 1 μg/ml Hoechst dye in DPBS. The cell plates were sealed and imaged using the Thermo Scientific ArrayScan VTI HCS Reader.
The inventive compounds and commercial dye were evaluated in direct fluorescence labeling of cell surface proteins. DyLight 649-NHS, 650 Compound 1-NHS, and Whole Cell Stain Orange (Thermo Fisher Scientific) were reconstituted in DMF and diluted to 6 μM in Dulbecco's PBS (DPBS). A total of four 1:1 serial dilutions of the dyes were prepared in DPBS. Frozen IMR90 cells (human lung embryonic fibroblast) on a plate were thawed for 1 h at 37° C. […] The cell plates were sealed and imaged using the Thermo Scientific ArrayScan VTI HCS Reader.

streptavidin (SA) [2] = molecular target: T1, streptavidin (SA) (Streptomyces avidinii, UniProt P22629); assay: Labeling efficiency (degree of labeling, mole dye to mole protein ratio) of streptavidin; details: NHS ester, 3X molar excess
T1 sequence (P22629 25-183, species assumed): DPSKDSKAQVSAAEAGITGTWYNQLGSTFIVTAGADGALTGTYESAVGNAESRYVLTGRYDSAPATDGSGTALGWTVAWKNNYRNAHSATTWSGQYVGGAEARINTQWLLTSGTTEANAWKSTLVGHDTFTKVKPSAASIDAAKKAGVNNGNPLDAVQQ

streptavidin (SA) [3] = molecular target: T1, streptavidin (SA); assay: as above; details: SA, NHS ester, 5X molar excess
Description: Inventive and commercial compounds, each as the NHS ester, were conjugated to goat anti-mouse (GAM), goat anti-rabbit (GAR) antibodies, and streptavidin (SA). GAM, GAR, and SA, at 10 mg/ml in phosphate buffered saline (PBS), were dialyzed against 50 mM borate buffer, pH 8.5. The compounds were reconstituted in dimethylformamide (DMF) at 10 mg/ml and combined at 2×, 4×, 5×, 7.5×, or 10× molar excess with GAM, GAR, or SA for 2 h at room temperature to label the antibodies or SA.
The labeled compounds, also termed dyes or labels, were subjected to PDDR to remove the unlabeled (free) compound; 100 μl of the packed resin was used per mg of protein purified. The purified antibody-labeled dyes were then diluted 1:50 in PBS and scanned for absorbance from 700 nm to 230 nm to determine the protein concentration, and to determine the mole dye to mole protein ratio. Each conjugate was diluted 1:10 in 50% glycerol and heated in the presence of 10 mM dithiothreitol (DTT) for 5 min at 95° C., then separated by electrophoresis on polyacrylamide gels in the presence of sodium dodecyl sulfate (SDS-PAGE). The gels were scanned using the Typhoon 9400 Imager to verify removal of the unconjugated compound. Labeling efficiency was compared, with results showing degree of labeling below.
Compounds 1, 2, and 3, each as the NHS ester, and DyLight 649-NHS were conjugated to goat anti-mouse (GAM) and goat anti-rabbit (GAR) antibodies. GAM and GAR, at a concentration of 10 mg/ml in phosphate buffered saline (PBS), were dialyzed against 50 mM borate buffer, pH 8.5. The compounds were reconstituted in dimethylformamide (DMF) at 10 mg/ml. To label the antibodies, the compounds were added at 2.5× molar excess and 5× molar excess for 2 h at room temperature. Streptavidin (SA) was reconstituted in PBS buffer, pH 7.2, and 50 mM borate buffer, pH 8.5, and labeled with 2.5× molar excess and 4× molar excess of the compound.
The antibody-labeled compounds, also termed dyes or labels, were subjected to gel filtration chromatography (15 cm×0.8 cm columns) or to the PDDR to remove the unlabeled (free) compound; 100 μl of the packed resin was used per mg of protein purified. The purified antibody-labeled dyes were then diluted 1:100 in PBS and scanned for absorbance from 700 nm to 230 nm to determine the protein concentration, and to determine the mole dye to mole protein ratio. Each conjugate was diluted 1:10 in 50% glycerol and heated in the presence of 10 mM dithiothreitol (DTT) for 5 min at 95° C., then separated by electrophoresis on polyacrylamide gels in the presence of sodium dodecyl sulfate (SDS-PAGE). The gels were scanned using the Typhoon 9400 Imager to verify removal of the unconjugated compound. Labeling efficiency was compared using labeling of the compounds to GAM antibody at a 2.5× molar excess of compound, with results shown below.
Labeling efficiency was also compared using labeling of the dyes to streptavidin (SA) at either a 2.5 fold or a 4 fold molar excess of the dye, with SA in PBS, pH 7.2, and borate buffer, pH 8.5.
650 Compound 1 (isomer 2)-TFP, 650 Compound 1 (isomer 1)-TFP, 650 Compound 1 (isomer 2)-TFP, 650 Compound 1-NHS, and DyLight 649-NHS were conjugated to GAM, GAR, and SA. GAM and GAR, at a concentration of 10 mg/ml in phosphate buffered saline (PBS), were dialyzed against 50 mM borate buffer, pH 8.5. The compounds were reconstituted in dimethylformamide (DMF) at 10 mg/ml and used to label antibodies at 5× molar excess of compound for two hours at room temperature to label the antibodies. SA was reconstituted in 50 mM borate buffer, pH 8.5, and combined with 4× molar excess to label the SA.
The antibody-conjugated and SA-conjugated compounds, also termed dyes or labels, were subjected to the PDDR to remove the unlabeled (free) compound. The purified antibodies and SA were then diluted 1:25 in PBS and scanned for absorbance from 700 nm to 230 nm to determine the protein concentration, and to determine the mole dye to mole protein ratio. […]

Row | Compound | Emission (Em) [1] | Excitation (Ex) [1] | ε [1] | Performance in direct fluorescence labeling of cell surface proteins (IMR90 cells) | D/P 3X (streptavidin (SA) [2]) | D/P 5X (streptavidin (SA) [3])
1 | COCCN1/C(=C/C=C/C2=[N+](CCCCCC(=O)ON3C(=O)CCC3=O)c3ccc(S(=O)(=O)[O-])cc3C2(C)CCCS(=O)(=O)O)C(C)(CCCS(=O)(=O)O)c2cc(S(=O)(=O)O)ccc21 (centres unmarked) [550 Compound 1-NHS] | 572 nm | 557 nm | 142,000 M−1cm−1 | performed equivalently as DyLight 549-NHS |  | 
2 | Alexa 750-SA: Alexa 750 conjugated to streptavidin (SA) [reference compound] |  |  |  |  | 3.3 | 4.7
3 | DyLight 750-SA: DyLight 750 conjugated to streptavidin (SA) [reference compound] |  |  |  |  | 2.5 | 4.0
